According to US11254654B2, “Heterochromatin gene repression inhibitors” (The University of North Carolina at Chapel Hill, priority 2017, dated 2022):
Structures can show the parent of a compound that is named as a salt.

Columns and labels:
G9a = target: T1, G9a (Homo sapiens, UniProt Q96KQ7); assay: In vitro activity against G9a; type: biochemical; settings: data not shown
T1 sequence (Q96KQ7 1-1210): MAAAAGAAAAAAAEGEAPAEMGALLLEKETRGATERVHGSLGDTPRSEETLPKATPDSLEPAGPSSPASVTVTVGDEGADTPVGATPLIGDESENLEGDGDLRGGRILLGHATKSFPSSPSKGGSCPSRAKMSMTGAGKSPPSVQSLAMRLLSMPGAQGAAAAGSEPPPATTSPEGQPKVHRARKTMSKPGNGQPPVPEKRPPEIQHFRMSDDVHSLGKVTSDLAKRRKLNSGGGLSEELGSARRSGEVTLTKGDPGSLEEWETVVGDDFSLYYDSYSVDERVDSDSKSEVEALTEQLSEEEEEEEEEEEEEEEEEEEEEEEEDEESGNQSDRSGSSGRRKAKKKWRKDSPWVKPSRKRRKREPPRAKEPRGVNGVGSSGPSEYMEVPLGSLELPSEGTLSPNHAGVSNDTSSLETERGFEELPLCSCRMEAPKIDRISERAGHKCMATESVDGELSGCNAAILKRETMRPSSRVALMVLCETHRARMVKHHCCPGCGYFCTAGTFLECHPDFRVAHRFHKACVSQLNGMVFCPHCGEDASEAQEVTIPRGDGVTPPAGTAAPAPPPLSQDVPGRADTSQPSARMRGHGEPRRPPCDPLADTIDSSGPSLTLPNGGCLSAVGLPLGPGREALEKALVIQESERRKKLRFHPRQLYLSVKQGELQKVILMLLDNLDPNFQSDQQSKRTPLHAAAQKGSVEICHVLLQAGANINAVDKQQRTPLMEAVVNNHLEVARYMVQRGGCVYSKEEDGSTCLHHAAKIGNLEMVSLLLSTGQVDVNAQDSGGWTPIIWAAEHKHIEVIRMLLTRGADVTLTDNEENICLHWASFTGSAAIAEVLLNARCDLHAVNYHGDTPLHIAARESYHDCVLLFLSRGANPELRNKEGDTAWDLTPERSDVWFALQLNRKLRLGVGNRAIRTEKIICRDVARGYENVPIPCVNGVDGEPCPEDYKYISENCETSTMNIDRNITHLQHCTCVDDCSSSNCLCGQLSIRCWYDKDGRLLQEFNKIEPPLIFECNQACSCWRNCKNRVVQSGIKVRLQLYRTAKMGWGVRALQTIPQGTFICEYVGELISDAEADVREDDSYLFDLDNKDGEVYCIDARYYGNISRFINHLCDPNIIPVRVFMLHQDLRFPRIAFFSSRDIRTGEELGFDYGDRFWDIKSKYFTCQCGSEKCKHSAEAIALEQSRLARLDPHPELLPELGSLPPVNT

H3K9me2/3 = assay: Global H3K9me2/3 western blot of acid extracted histones; type: cell-based, mouse; settings: 10 μM compound, 48 hours
Method: CiA:Oct4 N118/N163 cells were grown to confluency as described above in standard gelatin coated 6 well tissue culture plates. Media was aspirated and the cells were washed with 2 mL of PBS. The PBS was removed and the cells were trypsinized with 0.25% trypsin-EDTA until a single cell suspension was generated. Cells were transferred to a conical tube and pelleted at 300×g for 5 min. Supernatant was removed and the cells were washed with PBS and centrifuged at 300×g for 5 min. The PBS supernatant was removed. Nuclei were collected from the cells by resuspending the pellet in lysis buffer containing (50 mM HEPES pH 8.0, 140 mM NaCl, 1 mM EDTA, 10% glycerol, 0.5% NP40, 0.25% Triton X100). Cells were incubated in lysis buffer on ice for 10 min. Nuclei were pelleted at 1200×g for 5 min at 4° C. and the supernatant was removed. […]
SDS-PAGE sample gels were transferred to Millipore Immobilon-FL PVDF membranes either by semi-wet or wet transfer according to Bio-Rad procedure. […] Western blot membranes were imaged using the Licor Odyssey scanner and data analyzed using Image Studio v5.2 software.
HP1 gene repression and silencing is mediated by H3K9me3 deposition. […] Total extracted histone proteins were quantified by Bradford Coomassie and equal total protein was loaded per sample for gel electrophoresis and subsequent western blot analysis. […]

Structure (SMILES): COc1cc2nc(N3CCCC3)nc(N[C@H]3CCCNC3)c2cc1OC [compound 1, (S)-6,7-Dimethoxy-N-(Piperidin-3-yl)-2-(Pyrrolidin-1-yl)Quinazolin-4-Amine Trifluoroacetic Acid Salt]
- Activity against G9a in vitro (G9a): no detectable activity
- Global H3K9me2/3 levels normalized to histone H4 (H3K9me2/3): roughly equivalent decreases in H3K9 methylation
